Laboratory results as given in patent EP2605769B1, “BENZOQUINONE DERIVATIVES FOR THE TREATMENT OF MITCHONDRIAL EYE DISEASES” (Santhera Pharmaceuticals (Schweiz) AG, priority 2010, dated 2012).

Columns and labels:
Complex II-III = assay: Measurement of mitochondrial complex II activity (SURFE2R CII-CIII assay); type: biochemical; conditions: test compound ~4 µM, peak current normalized
Text: Complex II (CII) is an enzyme complex bound to the matrix face of the inner mitochondrial membranes. It consists of four subunits with several different enzymatic activities. One of these is the citric acid-cycle enzyme succinate dehydrogenase, which catalyzes the conversion from succinate to fumarate. In this reaction electrons are transferred from succinate to the prosthetic group FAD thus generating FADH2 ([…] 2000). These electrons are then transferred from the reduced FADH2 to ubiquinone, from ubiquinone to the reaction centers of complex III (CIII), and finally to the cytochrome c. During this electron translocation process, complex III pumps four protons from matrix to the intermembrane space. These proton fluxes can be detected as electrical currents on SSM-based SURFE2R sensors (http://www.sd-heidelberg.de/index.html). In the SURFE2R CII-CIII assay, both, CII and CIII are activated simultaneously by first equilibrating the sensors with succinate and then activating the CII-CIII reaction by oxidized cytochrome c. The resulting efflux of protons out from the membrane compartment induces negative currents, which are sensitive to the CII and CIII inhibitors malonate and antimycin A, respectively. Experimental Procedure: SURFE2R SSM sensors were coated with inner mitochondrial membranes according to the standard protocols. Briefly, sensors were filled with 50 μL of SensorPrep A solution and incubated for 10-15 min. […] The biosensors were thawed immediately before the experiment and measured with the SURFE2R Workstation 50 or 500 devices. […] For the activity of CII-III, the peak current (current amplitude) was evaluated. […] Afterwards, a test compound (~4 μM) was supplied to the non-activating and the activating solutions and the CII-III activity was recorded for further ~50 min (110 min in total). […] For those test compounds, which activated CII-III by more than 30% at time 80 to 110 min, the CII-CIII activity was recorded for additional ~50 min (up to 160 min in total).

[1] = tested on: Primary human fibroblasts C4 (GM04545, Coriell); assay: Lipid peroxidation assay (BODIPY 581/591-C11); type: cell-based; conditions: 10 µM test compound, 72 hours
Text: Lipid peroxidation is a well defined mechanism of cellular damage in both animals and plants that occurs during aging and in some disease states. This process proceeds by a free radical chain reaction mechanism. […] If not terminated fast enough, lipid peroxidation damages cellular membranes, affect membrane fluidity and also mitochondrial function. In addition, end products of lipid peroxidation may be mutagenic and carcinogenic. For instance, the reactive end product of lipid peroxidation, malondialdehyde, directly causes DNA damage. Experimental Procedure: […] BODIPY 581/591-C11 can be used to measure antioxidant activity in lipid environments by exploiting its loss of fluorescence upon interaction with peroxyl radicals. […] After that, 0.1 ml freshly prepared dye solution (HBSS, containing BODIPY dye 1:1000 from stock solution) was added and cells were returned to the incubator for 30 min. After 2 brief washes with 0.1 ml warmed PBS fluorescence was measured in 50 µl PBS. Fluorescence for 4 individual areas per well were individually quantified at two wavelengths (Ex1: 490, Em1: 600; Ex2: 490, Em2: 530, bandwith 10nm, 50 flashes, 400Hz frequency, 20 µs integration time).

SMILES | Complex II-III activity (Complex II-III) [%] | Lipid peroxidation [1] [%]
COC1=C(OC)C(=O)C(CCCCCCCCCCO)=C(C)C1=O [Compound IA, Idebenone] | 102 | 98
CCCCCCCCCCCC1=C(O)C(=O)C=C(O)C1=O [Compound IE, Embelin] | 110 | 110
COC1=C(OC)C(=O)C(CCCCCCCCCC(C)(C)O)=C(C)C1=O [Compound IC] | 97 | 92
